According to patent publication US9844554B2 (Neurogastrx, Inc., priority 2014, dated 2017):

Tests used:
[1] = test system: gastric emptying in Sprague-Dawley rats; experiment: Solid gastric emptying in rodents; type: in vivo, rat
Method: The animals received a standard laboratory rat chow and tap water ad libitum. The rats were around 400 g at 14 weeks age when used in gastric emptying study. Drugs: S-Carbidopa was purchased from Sigma (#: C1335). Stock solution of S-Carbidopa was prepared at 5 mg/ml using DMSO as solvent. 80 μl stock solution was further diluted into 1 ml distilled water to make 0.4 mg/ml. The effect of S-Carbidopa (1 mg/kg) on solid gastric emptying was studied. Procedures: Male SD rats were involved in this study. Rats were fasted in cages with metal wired mesh for 24 hours with free access to water; S-carbidopa (1 mg/kg) was administered to the rats by oral gavage. Control rats were not administered S-carbidopa. 15 minutes following administration, rats were given access to 2 g of rat chow pellets for ten minutes. All rats completely ingested the chow within the 10 minute time frame. Rats were sacrificed by sodium pentobarbital (100 mg/kg) overdose 90 min after feeding. The stomach was surgically isolated and removed. Gastric contents were recovered from the stomach, air dried for 48 hours and then weighed. Solid gastric emptying was calculated according to the following formula: Gastric emptying (%)=[1−(dried gastric content in g)/2 g]×100. All values are expressed as mean±SEM.

[2] = test system: cardiac action potentials in dogs; experiment: Canine cardiac action potentials by electrocardiography and telemetry; type: in vivo, dog; settings: for QTc intervals: oral gavage, 1-6 hours post-dose, vs vehicle
Source text: Surgical Implantation of the Telemetry Device and ECG Leads. Anesthesia is introduced to dogs. Balanced gaseous anesthesia is used throughout the surgical procedure. Once anesthetized, animals are shaved and surgically scrubbed, encompassing surgical sites of the right inguinal area, chest and right lateral abdomen. Throughout the surgical procedure, animals are monitored for continuous assessment of vital signs. An incision is made along the right medial thigh and the femoral artery exposed by blunt dissection. Another incision is made in the lateral lumbar area cranial to the iliac crest for a tunneling needle to be passed subcutaneously from the incision on the medial thigh to the lumbar incision. A blood pressure catheter is passed through the needle from the lumbar incision and the needle removed. The femoral artery is ligated distally and incised to insert a catheter that is advanced until the tip resided in the femoral artery/abdominal aorta. The catheter is then secured by ligation. The incision in the lumbar area is enlarged and a subcutaneous pocket created in the left dorsal lumbar area to hold the transmitter body. The transmitter (e.g., Data Sciences International, St Paul, Minn., USA) is inserted into the subcutaneous pocket and secured body. Electrocardiography (ECG) leads are positioned. The incision is closed. Postoperative recovery lasts, e.g., about 2 weeks during which supplemental analgesics/antibiotics are administered as needed. Once the postoperative recovery period is complete, the animal is examined for study acceptability by the staff veterinarian and the implanted transmitter signal verified.
Study Design. […] ECGs, heart rate and arterial blood pressure data are recorded 1 hour prior to and then continuously for at least 6 hours following compound and/or vehicle administration. A blood sample for determination of compound plasma concentrations is collected from all subjects at approximately 6 h post-dose.
ECG Analysis. An ECG waveform morphology assessment for the entire monitoring period is completed for each dog by a safety pharmacologist or veterinarian cardiologist. Standard ECG intervals (PR, RR, QRS and QT) are automatically measured by the data acquisition system and reported as, e.g., 10 min averages. The signals are collected with Data Sciences International Systems hardware. PR and QT manual overreads are conducted as appropriate. The manual measurements are completed from 50 mm s^−1 tracings at 30 min intervals. A mean of the three waveforms per time point are reported. QT intervals are corrected for heart rate (QTc) values by, e.g., using the formula by Funck-Bretano and Jaillon (1993).
Statistical Analysis. […] Dose-level averages (and accompanying standard deviation (s.d.) of these baseline-adjusted 10 min averages are calculated across study animals. ANOVA (e.g., repeated measures ANOVA) are applied to these baseline-adjusted averages. Pairwise t-tests are applied within the ANOVA to identify the presence of significant differences of the dose levels relative to vehicle. These t-tests are performed at a 0.05/2=0.025 significance level, so that the overall error rate across the comparisons in a given interval are not higher than 0.05. ECG interval data (reported at 30 min intervals) are analyzed using, e.g., repeated-measures ANOVA techniques similar to the systemic blood pressure and heart rate data described above.

hERG channel = hERG channel (Homo sapiens, UniProt Q12809); experiment: hERG voltage clamp assay in hERG-expressing cultured cells; type: cell-based; settings: approximate, from voltage clamp data, read-out: concentration necessary to inhibit 50% of the tail currents mediated by hERG channels
5HT2 = experiment: Radioligand binding affinity, 5HT2
α1 = experiment: Radioligand binding affinity, α1
[3] = test system: gastric motility in canines; experiment: Antral manometry (gastric motility) in canines; type: in vivo, canine (hound dogs)
Method: Two healthy female hound dogs (24-28 kg) were involved in this study. Animals were fed an ad libitum chow diet (LabDiet®). After an overnight fast, the dogs were anesthetized with Pentothal (sodium thiopental, 11 mg/kg IV; Abbott Laboratories, North Chicago, Ill.) and maintained on 2-4% isoflurane (Abbott Laboratories) in oxygen (1 L/min) carrier gases delivered from a ventilator after endotracheal intubation. A cannula was placed in the jejunum 20 cm distal to the pylorus for the assessment of antral motility. Dogs were allowed to recover in their individual cages for 2 weeks. All experiments were performed after the dogs were completely recovered from the surgical procedure. The study was performed according to the National Institutes of Health Guidelines on the use of laboratory animals and approved by the Animal Care and Use Committee of the University of Texas Medical Branch at Galveston, Tex. To investigate the effect of the drugs on antral manometry, the study of each drug dose was done on three randomized sessions on separate days following the consumption of one can of solid dog food: 1) a Control session: In which animals received the vehicle only; 2) Dose I session: in which the lower dose of the drug was used; and 3) Dose II session: in which the higher dose of the drug was used (please refer to table for drug doses). Drug administration was performed according to Table 4, below. Antral manometry was performed as follows. Following an overnight fast, an intraluminal water-perfused manometry catheter was inserted into the antrum through the jejunal cannula. Antral manometry recording was initiated after the consumption of one can of solid food and continued for 3 hours. The catheter contained 3 manometric sensors at a 1 cm interval. Dogs were given 10 minutes of accommodation, prior to the start of the recording. For data analysis, motility index (MI), defined as the integrated area (area under curve—AUC) between baseline and contractions per hour, was calculated. For statistical analysis, the Student's t-test was used for assessment of individual differences between groups (high dose, low dose of each drug) compared to control—Microsoft®Excel 2002). All values are expressed as mean±SEM. Significance was considered when p value was ≦0.05.

D3 = D3 (Homo sapiens, UniProt P35462); experiment: Radioligand binding affinity, D3
Chain of D3 (P35462 whole entry): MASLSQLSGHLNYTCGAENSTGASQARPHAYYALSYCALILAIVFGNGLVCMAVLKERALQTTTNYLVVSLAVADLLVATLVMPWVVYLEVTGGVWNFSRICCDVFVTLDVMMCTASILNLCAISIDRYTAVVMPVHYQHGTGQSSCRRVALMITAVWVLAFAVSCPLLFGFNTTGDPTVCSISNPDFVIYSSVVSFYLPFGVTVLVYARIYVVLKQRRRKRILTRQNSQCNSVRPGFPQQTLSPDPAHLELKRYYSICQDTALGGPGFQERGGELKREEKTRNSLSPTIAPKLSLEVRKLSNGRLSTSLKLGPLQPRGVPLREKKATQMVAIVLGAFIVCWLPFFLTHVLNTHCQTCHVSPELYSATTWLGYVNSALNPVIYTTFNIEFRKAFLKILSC

Chain of hERG channel (Q12809 whole entry): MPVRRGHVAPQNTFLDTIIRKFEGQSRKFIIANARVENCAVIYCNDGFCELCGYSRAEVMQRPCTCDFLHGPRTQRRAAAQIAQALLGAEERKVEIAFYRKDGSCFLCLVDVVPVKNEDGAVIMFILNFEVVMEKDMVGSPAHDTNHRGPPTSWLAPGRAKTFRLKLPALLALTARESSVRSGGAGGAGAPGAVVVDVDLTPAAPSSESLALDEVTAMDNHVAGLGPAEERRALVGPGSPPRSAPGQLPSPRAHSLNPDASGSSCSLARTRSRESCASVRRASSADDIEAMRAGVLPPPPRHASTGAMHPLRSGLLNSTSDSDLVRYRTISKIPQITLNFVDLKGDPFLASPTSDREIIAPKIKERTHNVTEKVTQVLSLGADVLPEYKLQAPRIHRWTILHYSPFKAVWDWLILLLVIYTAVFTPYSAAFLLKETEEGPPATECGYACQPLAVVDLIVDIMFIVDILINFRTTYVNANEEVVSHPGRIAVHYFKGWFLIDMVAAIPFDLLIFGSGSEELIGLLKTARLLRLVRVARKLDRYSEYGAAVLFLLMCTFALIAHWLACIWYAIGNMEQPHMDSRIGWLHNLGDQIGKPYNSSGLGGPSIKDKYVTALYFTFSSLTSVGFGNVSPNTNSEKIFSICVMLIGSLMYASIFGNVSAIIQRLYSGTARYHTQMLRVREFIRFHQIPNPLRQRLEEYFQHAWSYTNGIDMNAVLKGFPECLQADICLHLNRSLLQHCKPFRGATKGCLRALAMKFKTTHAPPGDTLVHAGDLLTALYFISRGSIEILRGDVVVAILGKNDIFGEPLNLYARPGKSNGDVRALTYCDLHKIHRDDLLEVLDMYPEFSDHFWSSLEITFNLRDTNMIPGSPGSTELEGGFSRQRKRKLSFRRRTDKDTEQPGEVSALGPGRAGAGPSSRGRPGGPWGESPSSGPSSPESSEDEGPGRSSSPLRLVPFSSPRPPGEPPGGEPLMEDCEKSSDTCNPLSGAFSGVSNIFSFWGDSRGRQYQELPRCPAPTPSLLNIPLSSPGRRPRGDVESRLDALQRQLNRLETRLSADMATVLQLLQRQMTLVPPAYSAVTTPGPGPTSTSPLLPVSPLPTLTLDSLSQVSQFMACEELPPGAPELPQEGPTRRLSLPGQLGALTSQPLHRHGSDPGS

Row | SMILES | Ki (5HT2) [nM] | Ki (α1) [nM] | motor dysfunction [3] | QTc intervals [2] | IC50 (hERG channel) [nM] | other results
1 | Cl.NCCc1ccc(O)c(O)c1 [dopamine hydrochloride, Dopamine hydrochloride] |  |  |  |  |  | motility index (MI), antral manometry ([3]; 50 mg/canine IV immediately before meal, all channels, p=0.06): decreased MI
2 | CS(=O)(=O)c1ccc2c(c1)N(CCCN1CCC(C(=O)O)CC1)c1ccccc1S2 [Metopimazine-Acid, metopimazine acid] | 370 | 210 |  | no significant increases in QTc intervals | > 10000 | Ki (D3): > 100 nM
3 | CN(CCOc1ccc(NS(C)(=O)=O)cc1)CCc1ccc(NS(C)(=O)=O)cc1 [dofetilide] |  |  |  | QTc intervals are increased |  | incidence of ECG abnormalities ([2]; 0.3 mg/kg oral gavage): increases the incidence of premature ventricular contractions, T-wave abnormalities, and right bundle branch block

Now from value to molecule, other results behind:

Row | Ki (5HT2) [nM] | Ki (α1) [nM] | motor dysfunction [3] | SMILES | QTc intervals [2] | IC50 (hERG channel) [nM] | other results
4 | 15 | 1.9 | no motor dysfunction was observed | CS(=O)(=O)c1ccc2c(c1)N(CCCN1CCC(C(N)=O)CC1)c1ccccc1S2 [Metopimazine, 1-[3-[2-(methylsulfonyl)-10H-phenothiazin-10-yl]propyl]-piperidine-4-carboxamide] | no significant increases in QTc intervals | ~3000 | overall increase in gastric emptying as compared to vehicle control ([1]; rats, pooling the 3 mg/kg and 10 mg/kg doses): about 20%
5 |  |  | no motor dysfunction was observed | C[C@@](Cc1ccc(O)c(O)c1)(NN)C(=O)O [S-Carbidopa, (25)-3-(3,4-dihydroxyphenyl)-2-hydrazino-2-methylpropanoic acid] | no significant increases in QTc intervals |  | motor dysfunction ([1]; rats administered carbidopa): no motor dysfunction was observed; solid gastric emptying compared to control rats ([1]; rats, initial results): improves solid gastric emptying; motility index (MI), antral manometry ([3]; 1 mg/kg IV 15 min prior to meal, all three channels, p=0.05): robustly increased MI
